# In patent US20260146025A1, “CRYSTALLINE POLYMORPHS OF MITAPIVAT AND MITAPIVAT HEMISULFATE” (TIANISH LABORATORIES PRIVATE LIMITED, priority 2022, published 2026):
# Where a name gives a salt, the structure may show the parent alone.
# Assay: Physical stability of polymorphs on storage, tested by PXRD
# Type: physicochemical
# Settings: for physical stability (PXRD analysis): up to three months
# Method: The powder X-ray diffraction patterns of said polymorphs of the invention were measured on a PANalytical X′Pert PRO powder diffractometer equipped with a goniometer of θ/θ configuration and X'Celerator detector. The Cu-anode X-ray tube was operated at 40 kV and 30 mA. The experiments were conducted over the 2θ range of 2.0°-50.0°, 0.0330 step size and 50 seconds step time.
# In yet another embodiment, the physical stability of crystalline mitapivat hemi sulfate Form VII and crystalline mitapivat hemi sulfate Form XI were determined by storing the samples at 40° C./75% relative humidity (RH) and at 25° C./60% RH conditions for three months as shown in Table 1.
SMILES,physical stability (PXRD analysis) (25° C./60% relative humidity (RH)),physical stability (PXRD analysis) (40° C./75% relative humidity (RH)),"PXRD (physical stability) (stored at 25° C./60% RH, 1 month)","PXRD (physical stability) (stored at 25° C./60% RH, 2 months)","PXRD (physical stability) (stored at 25° C./60% RH, 3 months)","PXRD (physical stability) (stored at 40° C./75% RH, 1 month)","PXRD (physical stability) (stored at 40° C./75% RH, 3 months)","PXRD (physical stability) (stored at 40° C./75% RH, 2 months)"
"O=C(c1ccc(NS(=O)(=O)c2cccc3cccnc23)cc1)N1CCN(CC2CC2)CC1 [Mitapivat hemi sulfate Form VII, 8-quinolinesulfonamide, N-[4-[[4(cyclopropylmethyl)-1-piperazinyl]carbonyl]phenyl]-, sulfate]",physically stable,physically stable,Stable,Stable,Stable,Stable,Stable,
"O=C(c1ccc(NS(=O)(=O)c2cccc3cccnc23)cc1)N1CCN(CC2CC2)CC1 [Mitapivat hemi sulfate Form XI, 8-quinolinesulfonamide, N-[4-[[4(cyclopropylmethyl)-1-piperazinyl]carbonyl]phenyl]-, sulfate]",,,,,,,,Stable
